Earlier results in US10172811B2, “Topical antifungal composition for treating onychomycosis” (Polichem S.A., priority 2013, dated 2019).

How the values were obtained:
onychomycosis [1] = details: topical nail formulation; 48 weeks daily treatment, 12-week follow up
onychomycosis [2] = details: oral

Row | Structure (SMILES) | Complete cure (onychomycosis [1]) | Responders (onychomycosis [1]) [%] | Complete cure, proportion of patients (onychomycosis [2]) [%]
1 | Cc1cc(C2CCCCC2)n(O)c(=O)c1 [ciclopirox] | about 13% | ~30 | 
2 | CN(C/C=C/C#CC(C)(C)C)Cc1cccc2ccccc12 [terbinafine] |  |  | 38
